Laboratory results reported in article PMC10518255, “A first-in-class pan-lysyl oxidase inhibitor impairs stromal remodeling and enhances gemcitabine response and survival in pancreatic cancer” (Nature Cancer, 2023).
pIC50: −log10 of the molar value. Several values for one entry are separate records, joined by “and”; a condition that tells them apart may be missing. Equal values may be shown once.

What was measured:
[1] = tested on: human pancreatic cancer CAFs; experiment: 3D organotypic matrix contraction assay; format: cell-based; parameters: area of matrices: unit not given here; details: for area of matrices: single replicates
Description: High-purity rat tail collagen for 3D organotypic assays was acid extracted following previously published methodology. The 12-day organotypic assays were carried out as described previously. In brief, 2 × 10^5 KPC CAFs were embedded in 2.5 ml 1.5 mg ml^−1 rat tail collagen and allowed to remodel for 12 days in a six-well plate in DMEM supplemented with 10% FBS and 1% penicillin–streptomycin in 21% O2/5% CO2 (Extended Data Fig. 4a). For human pancreatic cancer CAFs, 3.45 × 10^5 cells were embedded into 1.25 ml 1.5 mg ml^−1 rat tail collagen and allowed to remodel for 12 days in a 12-well plate in IMDM supplemented with 4 mM glutamine and 10% FBS in 21% O2/5% CO2.
Extended Data Fig. 4 PXS-5505 inhibits collagen cross-linking by PDAC CAFs in vitro resulting in decreased cancer cell invasion. a. Schematic of organotypic matrix remodeling assay whereby CAFs are embedded into a 3D collagen matrix and growth media supplemented with or without PXS-5505 to inhibit lysyl oxidase family activity b. Chemical structures of lysyl oxidase family catalyzed hydroxyallysine or allysine residues and the subsequent divalent and trivalent bonds that are formed that can be quantified by mass spectrometry. c. Representative images of 3D organotypic matrix contraction by human pancreatic cancer CAFs at days 2, 6 and 12 in the absence (gray) and presence (pink) of PXS-5505 (30 µM). Scale bars = 5 mm. […] Data presented as mean values +/− SD. d. […] Data presented as mean values +/− SD. Relative fold expression of LOXL family members compared to LOX were determined by 2^–∆∆Ct approach. f. Schematic of cancer cell invasion in a 3D organotypic matrix assay whereby cancer cells are seeded to the surface of a remodeled collagen plug and placed at an air–liquid interface and allowed to invade into the remodeled matrix. […] Scale bars = 100 μm. g. […] Representative images of 3D organotypic matrix contraction assay at days 2, 6 and 12 of control (gray) and presence of PXS-5120 (blue) and PXS-5505 (pink). Scale bars = 5 mm. Comparison of measured area of matrices between control, PXS-5120 and PXS-5505 treatment groups (n = 3) over time. i. […] Representative images of invasion of KPC cancer cells into a contracted organotypic matrix as determined by H&E staining. […] Source data

[2] = target: T1, bovine aorta extracted LOX (Bos taurus, UniProt P33072); experiment: Substrate competition assay versus putrescine dihydrochloride, amplex red (Extended Data Fig. 3b); format: biochemical
T1 construct: performed in an amplex red assay using bovine aorta extracted LOX; from tissue; host or cells: bovine aorta
Text: Similar to other fluoroallylamine-based amine oxidase inhibitors, the mode of inhibition is assumed to be a two-step mechanism (Fig. 2c), with PXS-5505 reacting with the unique LTQ cofactor found within the active site. The fluoroallylamine facilitates the formation of a covalent, irreversible bond. […] Furthermore, in jump dilution experiments, there is no significant recovery of activity following rapid dilution (LOXL1 (5 ± 5% recovery, n = 4), LOXL2 (7 ± 1.2% recovery, n = 3) and LOXL3 (11 ± 2% recovery, n = 3)).
Data presented as mean values +/− SD. f. […] Data presented as mean values +/− SD. […] Data presented as mean values +/− SD. […] Data presented as mean values +/− SD. Ordinary one-way ANOVA for multiple comparison test performed. Source data

[3] = target: all lysyl oxidase family members; experiment: Lysyl oxidase enzymatic activity, fluorescence-based assay, IC50 range over the family; format: biochemical, human; details: range over the five family members; read-out: IC50 values against all lysyl oxidase family members
Description: In characterizing PXS-5505, the half-maximum inhibitory concentration (IC50) values for each of the lysyl oxidase family members were determined by measuring enzymatic activity using a fluorescence-based assay.

[4] = tested on: KPC CCs; experiment: Cancer cell invasion into CAF-remodeled 3D organotypic matrices; format: cell-based, mouse; details: for number of cancer cells invaded per FOV: single replicates
Description: Fig. 3 PXS-5505 inhibition of CAF remodeling in vitro. a, Quantitative PCR with reverse transcription (qRT–PCR) showing in vitro comparison of KPC CAF relative expression of lysyl oxidase family members compared to KPC CCs from the same model (n = 3 biologically independent samples). Comparisons were determined by 2^–∆∆Ct approach. b, Representative images of 3D organotypic matrix contraction assay at days 2, 6 and 12 in the absence (gray) or presence (pink) of PXS-5505 (30 µM). Scale bars, 5 mm. Comparison of measured area of matrices between control and PXS-5505 treatment groups over time (n = 3 technical samples examined over three biologically independent samples). Data are mean ± s.d. c, Concentration of immature divalent DHLNL and mature trivalent Pyr collagen crosslinks determined by LC–MS from control and PXS-5505-treated organotypic matrices at day 12 (n = 3 technical samples examined over two biologically independent samples). Data are mean ± s.d. […] Data are presented as mean ± s.d. […] Comparison of number of CCs invaded per field of view (FOV) as determined by H&E and PanCK staining (nine images taken from three technical samples from each of three biologically independent contracted matrices), normalized to control. Data are mean ± s.d. Scale bars, 100 μm. […] Source data
Following remodeling, 4 × 10^4 KPC CCs were seeded on top of the remodeled matrix in DMEM supplemented with 10% FBS and 1% penicillin–streptomycin and allowed to grow to confluence for 4 days, after which matrices were transferred to an air–liquid interface and CCs allowed to invade into the organotypic matrices for 12 days (Extended Data Fig. 4f). PXS-5505 (30 μM) or PXS-5120 (100 nM) was added to medium at 48-h intervals for the duration. At the end point, matrices were fixed in 10% formalin and processed for histological analysis by H&E and panCK staining. The invasive index was measured in three representative areas per matrix and the number of invaded cells per mm^2 was calculated. No statistical methods were used to predetermine sample sizes but our sample sizes are similar to those reported in previous publications[36],[39].
Extended Data Fig. 4 PXS-5505 inhibits collagen cross-linking by PDAC CAFs in vitro resulting in decreased cancer cell invasion. a. Schematic of organotypic matrix remodeling assay whereby CAFs are embedded into a 3D collagen matrix and growth media supplemented with or without PXS-5505 to inhibit lysyl oxidase family activity b. Chemical structures of lysyl oxidase family catalyzed hydroxyallysine or allysine residues and the subsequent divalent and trivalent bonds that are formed that can be quantified by mass spectrometry. c. Representative images of 3D organotypic matrix contraction by human pancreatic cancer CAFs at days 2, 6 and 12 in the absence (gray) and presence (pink) of PXS-5505 (30 µM). Scale bars = 5 mm. […] Data presented as mean values +/− SD. d. […] Data presented as mean values +/− SD. Relative fold expression of LOXL family members compared to LOX were determined by 2^–∆∆Ct approach. f. […] Comparison of measured area of matrices between control, PXS-5120 and PXS-5505 treatment groups (n = 3) over time. i. […] Representative images of invasion of KPC cancer cells into a contracted organotypic matrix as determined by H&E staining. […]

T1 sequence (P33072 170-418): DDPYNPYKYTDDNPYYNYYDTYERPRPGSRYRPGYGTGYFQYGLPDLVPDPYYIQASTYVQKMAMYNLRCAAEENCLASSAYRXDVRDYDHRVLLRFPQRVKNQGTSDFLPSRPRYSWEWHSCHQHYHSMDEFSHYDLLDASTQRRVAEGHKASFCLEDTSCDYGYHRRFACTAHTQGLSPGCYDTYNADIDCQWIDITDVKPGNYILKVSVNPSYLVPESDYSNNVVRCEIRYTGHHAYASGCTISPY

SMILES: Cl.Cl.NC/C=C(\F)CS(=O)(=O)c1cccc2cccnc12.O [PXS-5505, (Z)-3-fluoro-4-(quinolin-8-ylsulfonyl)but-2-en-1-amine dihydrochloride monohydrate]
- matrix contraction ([1]; human pancreatic cancer CAFs, PXS-5505 30 µM): no effect on CAF ability to contract matrices
- area of matrices ([1]; time 0): 3.834
- area of matrices ([1]; time 6): 3 and 2.954 and 2.863 and 2.88 and 3.193 (2×) and 3.06 and 3.1 and 3.113
- area of matrices ([1]; time 10): 2.446 and 2.524 and 2.482 and 2.6253 and 2.773 and 2.7357 and 2.554 (2×) and 2.298
- area of matrices ([1]; time 12): 2.093 and 2.049 and 2.109 and 2.548 and 2.951 and 2.912 and 2.791 (2×) and 2.892
- substrate competition [2]: substrate competition
- pIC50 [3]: 5.30 to 6.70
- depth of invasion ([4]; PXS-5505 30 µM): no significant difference in depth of invasion
- invasion into the organotypic matrices by CCs ([4]; PXS-5505 30 µM): decrease in invasion
- number of cancer cells invaded per FOV ([4]; determined by H&E): 0.4375 and 0.5681 and 0.5386 and 0.8338 and 0.9078 and 0.6013 and 0.6222 and 0.3197 and 1.014
- number of cancer cells invaded per FOV ([4]; determined by PanCK): 0.6309 and 0.4054 and 0.3571 and 0.6771 and 0.6115 and 1.118 and 0.7087 and 0.8827 and 0.7763
